In general, IC50 refers to the concentration that inhibits the measured activity by half.

For this assay, the target named is T1, VEGFR-3 (Homo sapiens, UniProt P35916).
T1 construct: expressed in transfected cells; host or cells: HEK293T cells, transient transfection with Fugene-6
T1 sequence (P35916 25-1363, species assumed): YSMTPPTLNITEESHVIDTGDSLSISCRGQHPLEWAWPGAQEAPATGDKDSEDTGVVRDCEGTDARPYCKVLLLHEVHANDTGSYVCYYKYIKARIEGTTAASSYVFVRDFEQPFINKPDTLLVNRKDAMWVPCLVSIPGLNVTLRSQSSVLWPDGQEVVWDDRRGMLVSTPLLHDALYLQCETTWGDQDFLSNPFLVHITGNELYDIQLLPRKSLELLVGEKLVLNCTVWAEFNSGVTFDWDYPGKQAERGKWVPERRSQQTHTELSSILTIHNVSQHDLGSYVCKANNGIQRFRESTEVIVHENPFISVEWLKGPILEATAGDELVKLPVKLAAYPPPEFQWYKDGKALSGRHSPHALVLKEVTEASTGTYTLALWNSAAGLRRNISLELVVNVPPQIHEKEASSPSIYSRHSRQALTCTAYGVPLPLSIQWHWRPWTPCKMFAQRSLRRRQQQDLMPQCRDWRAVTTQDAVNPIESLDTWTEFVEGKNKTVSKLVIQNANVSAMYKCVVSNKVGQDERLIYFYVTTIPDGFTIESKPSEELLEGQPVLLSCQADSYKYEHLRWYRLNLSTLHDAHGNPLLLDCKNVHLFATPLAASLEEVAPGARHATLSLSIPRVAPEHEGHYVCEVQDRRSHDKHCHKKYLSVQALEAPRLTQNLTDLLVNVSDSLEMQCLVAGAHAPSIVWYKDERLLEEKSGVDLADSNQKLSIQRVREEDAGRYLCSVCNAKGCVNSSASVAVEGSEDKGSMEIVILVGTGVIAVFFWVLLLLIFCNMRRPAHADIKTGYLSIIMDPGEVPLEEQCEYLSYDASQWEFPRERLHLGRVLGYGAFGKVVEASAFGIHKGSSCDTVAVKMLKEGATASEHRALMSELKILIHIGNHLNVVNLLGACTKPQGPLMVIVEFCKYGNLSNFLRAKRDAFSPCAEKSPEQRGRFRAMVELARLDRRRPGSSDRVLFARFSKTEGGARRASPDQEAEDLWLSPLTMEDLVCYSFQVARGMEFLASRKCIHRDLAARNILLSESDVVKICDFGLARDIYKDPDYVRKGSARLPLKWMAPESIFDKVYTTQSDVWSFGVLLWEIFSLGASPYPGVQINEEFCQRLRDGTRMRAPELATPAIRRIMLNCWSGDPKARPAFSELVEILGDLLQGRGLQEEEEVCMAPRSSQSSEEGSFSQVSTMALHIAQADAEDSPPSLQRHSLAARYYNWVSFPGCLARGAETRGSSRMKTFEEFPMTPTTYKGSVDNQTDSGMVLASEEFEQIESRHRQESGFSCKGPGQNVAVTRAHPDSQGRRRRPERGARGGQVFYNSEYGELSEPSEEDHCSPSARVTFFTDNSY
Briefly: Effect of compounds on VEGFR-3 auto-phosphorylation in HEK cells (ELISA). In kind it is cell-based. The following applies: autophosphorylation of VEGFR-3-Flag overexpressed in HEK293T cells, 1 h incubation with compound. The protocol: Effect of Compounds on VEGFR-3 Auto-Phosphorylation in HEK Cells
The effects of compounds in blocking VEGFR-3 autophosphorylation were quatified by ELISA after Overexpression of VEGFR-3 in HEK cells. HEK293T cells were maintained in MEM supplemented with 10% foetal calf serum (FCS) and glutamine. The day before transfection, […] were seeded on 48 wells plates and transfection was done using Fugene-6 (Roche, Basel). Fugene-6 (18 μL) was preincubated for 5 min with 282 μl of optimem. Then 3 μg DNA corresponding VFGR-3-Flag was added and left at room temperature during 10 min before distributing 200 μl on HEK cells. After 24 h, the medium was removed and replaced by a new one without serum and incubated for 1 h with different concentrations (ranging from 3 to 1000 nM) of each compound. After additional 30 min incubation with Orthovanadate (0.4 mM), cells were washed with cold PBS supplemented by orthovanadate and then lysed with 300 μl of RIPA buffer. Lysates were then centrifuged during 10 min at 10000 g. Supernatants (75 μl) were distributed in duplicate on 96 well plate precoated with the anti-Flag and left during 1 hour at room temperature. After 3 washes with TBS buffer containing 0.5% tween 20, the anti-phospho-tyrosine conjugated to the HRP was added and incubated for 1 hour at room temperature. Wells were then washed 3 times with TBS buffer containing tween 20 (0.5%) and MgCl2 (2 mM). The reaction was stopped with 50 μl of H2SO4 (2 N) and the signal was read at Envision at 485 and 530.
The concentration-response curves were analyzed with internal software Biost@t-SPEED v2.0 using the 4-parameter logistic model according to Ratkovsky and Reedy (Ratkovsky D A., Reedy T J. Choosing near-linear parameters in the four parameters logistic model radioligands and related assays. Biometrics 1986 September 42(3):575-82.)
For orientation: An ELISA detects its analyte on a solid surface through an enzyme-linked reagent.
Take `CCCC(O)C#Cc1ccc2c(=O)c(-c3ncc[nH]3)c(N)n(CC)c2n1` (racemic) [Compound 24, 2-Amino-1-ethyl-7-(3-hydroxyhex-1-yn-1-yl)-3-(1H-imidazol-2-yl)-1,8-naphthyridin-4(1H)-one]: the IC50 was 0.085 µM.
The value for `CCn1c(N)c(-c2ncc[nH]2)c(=O)c2ccc(C#CC3(O)CCCC3)nc21` [Compound 14, 2-Amino-1-ethyl-7-[(1-hydroxycyclopentyl)ethynyl]-3-(1H-imidazol-2-yl)-1,8-naphthyridin-4(1H)-one] was 0.2 µM; that for `CCn1c(N)c(-c2ncc[nH]2)c(=O)c2ccc(C#CC(C)(O)c3ccccc3F)nc21` (racemic) [Compound 9, 2-Amino-1-ethyl-7-[3-(2-fluorophenyl)-3-hydroxybut-1-yn-1-yl]-3-(1H-imidazol-2-yl)-1,8-naphthyridin-4(1H)-one] was 0.016 µM.
The value for `CCC(O)C#Cc1ccc2c(=O)c(-c3ncc[nH]3)c(N)n(C3CCCC3)c2n1` (racemic) [Compound 10, 2-Amino-1-cyclopentyl-7-(3-hydroxypent-1-yn-1-yl)-3-(1H-imidazol-2-yl)-1,8-naphthyridin-4(1H)-one] was 0.037 µM.
The value for `CCn1c(N)c(-c2ncc[nH]2)c(=O)c2ccc(-c3ccc(O)c(Cl)c3)nc21` [Compound 8, 2-Amino-7-(3-chloro-4-hydroxyphenyl)-1-ethyl-3-(1H-imidazol-2-yl)-1,8-naphthyridin-4(1H)-one] was 0.073 µM; that for `CCn1c(N)c(-c2ncc[nH]2)c(=O)c2ccc(C#CC(O)(c3ccccc3)C(F)(F)F)nc21` (racemic) [Compound 19, 2-Amino-1-ethyl-3-(1H-imidazol-2-yl)-7-(4,4,4-trifluoro-3-hydroxy-3-phenylbut-1-yn-1-yl)-1,8-naphthyridin-4(1H)-one] was 0.014 µM; that for `CCn1c(N)c(-c2ncc[nH]2)c(=O)c2ccc(C#C[C@@](C)(O)CO)nc21` [Compound 27, 2-Amino-7-((3R)3,4-dihydroxy-3-methyl-but-1-ynyl)-1-ethyl-3-(1H-imidazol-2-yl)-1,8-naphthyridin-4(1H)-one] was 0.047 µM.
For the molecule `CCn1c(N)c(-c2ncc[nH]2)c(=O)c2ccc(C#CC(C)(O)c3cccs3)nc21` (racemic) [Compound 21, 2-Amino-1-ethyl-7-[3-hydroxy-3-(thiophen-2-yl)but-1-yn-1-yl]-3-(1H-imidazol-2-yl)-1,8-naphthyridin-4(1H)-one], the IC50 stood at 0.024 µM.
The result for `CCn1c(N)c(-c2ncc[nH]2)c(=O)c2ccc(C#CC(C)(C)O)nc21` [Compound 15, 2-Amino-1-ethyl-7-(3-hydroxy-3-methylbut-1-yn-1-yl)-3-(1H-imidazol-2-yl)-1,8-naphthyridin-4(1H)-one] reads 0.027 µM.
Turning to `CCC(O)C#Cc1ccc2c(=O)c(-c3ncc[nH]3)c(N)n(CC3CC3)c2n1` (racemic) [Compound 6, 2-Amino-1-(cyclopropylmethyl)-7-(3-hydroxypent-1-yn-1-yl)-3-(H-imidazol-2-yl)-1,8-naphthyridin-4(1H)-one], the IC50 worked out at 0.085 µM.
The value for `CCCn1c(N)c(-c2ncc[nH]2)c(=O)c2ccc(C#C[C@@](C)(O)COC)nc21` [Compound 2, 2-Amino-1-propyl-7-((3R)-3-hydroxy-4-methoxy-3-methyl-but-1-ynyl)-3-(1H-imidazol-2-yl)-1H-[1,8]naphthyridin-4-one] was 0.018 µM; that for `CCn1c(N)c(-c2ncc[nH]2)c(=O)c2ccc(C#C[C@@](C)(O)COC)cc21` [Compound 7, 2-Amino-1-ethyl-7-[(3R)-3-hydroxy-4-methoxy-3-methylbut-1-yn-1-yl]-3-(1H-imidazol-2-yl)quinolin-4(1H)-one] was 0.019 µM; that for `CCn1c(N)c(-c2ncc[nH]2)c(=O)c2ccc(C#C[C@](C)(O)COC)nc21` [Compound 29, 2-Amino-1-ethyl-7-((3S)-3-hydroxy-4-methoxy-3-methyl-but-1-ynyl)-3-(1H-imidazol-2-yl)-1,8-naphthyridin-4(1H)-one] was 0.145 µM.

The record behind these values is US9675606B2, “2-amino-3-(imidazol-2-yl)-pyridin-4-one derivatives and their use as VEGF receptor kinase inhibitors” (SANOFI, priority 2011, dated 2017).
